What all share (assay type): biochemical
Experiment [1] has as its system B-phycoerythrin from Porphyrium cruentum. Put plainly: peroxy free radical trapping test (protection of B-phycoerythrin from destruction by peroxy free radicals). The settings on record: B-phycoerythrin 10 nM, 2,2'-azobis-2-methylpropionamidine 500 μM, 37° C.; peptide 20 nM to 20 μM. How it is done:
The ability of peptides to protect the globular protein B-phycoerythrin from destruction by peroxy free radicals was tested. This was done by oxidizing B-phycoerythrin from Porphyrium cruentum (10 nM) in phosphate-buffered saline solution using 2,2′-azobis-2-methylpropionamidine (500 μM) at 37° C. as source of peroxy free radicals. Destruction of the protein was measured by observing the decrease in the protein fluorescence with increasing incubation time (flash fluorimetry, excitation window 340±50 nm, emission window 572±6 nm) . The results of this experiment for the secretory peptides GnRH (human) and for the synthetic peptides WY, WGGGY, WW and YY are shown in FIG. 1A. The meanings in the individual diagrams are • the control and ⋄ a concentration of 20 nM, ∘ 200 nM, ▾ 2 μM and ∇ 20 μM of the particular peptide (quadruplicate determinations) .
The results are shown in FIG. 2. • means the control, ∘ means a concentration of 200 nM, ▾ means a concentration of 2 μM and ∇ means a concentration of 20 μM of the particular peptide (quadruplicate determinations).
Experiments were carried out to test the antioxidant effect of other substances in the peroxy free radical trapping test described in example 1. The results are shown in FIG. 3 (see FIG. 1A for explanation) .

Experiment [2] deals with native rat brain membranes. Briefly: protection of brain membranes from oxidative damage by ascorbate (lipid peroxidation, chemiluminescence). The conditions noted are these: membranes 0.5 mg/ml protein, 50 μM ascorbate, 37° C.; peptide 20 μM and 100 μM. The procedure: Secretory peptides are able to protect brain membranes from oxidative damage by ascorbate. This was done by oxidizing native rat brain membranes (0.5 mg/ml protein) by adding 50 μM ascorbate at 37° C. Single-photon measurement of the chemiluminescence (as measure of peroxidation reactions occurring) was measured for quantitative determination of the lipid peroxidation as described by Moosmann and Behl (supra). The results for GnRH (human) are shown in FIG. 1C. • means the control and ⋄ a concentration of 20 μM and ▪ a concentration of 100 μM of the particular peptide (duplicate determinations).

Another experiment deals with human LDL. Put plainly: protection of LDL from copper-catalyzed oxidation (conjugated dienes, 234 nm). The settings on record: LDL 0.1 mg/ml protein, 10 μM CuSO4, 37° C.; peptide 20 μM and 100 μM. The procedure: In a further test, the ability of the peptides to protect LDL from copper-catalyzed oxidation was tested. This was done by incubating fresh human LDL (0.1 mg/ml protein) with 10 μM CuSO4 at 37° C. The reaction products of the LDL decomposition (conjugated dienes) were measured by photometry at 234 nm as described by Moosmann and Behl (Proc. Natl. Acad. Sci. USA 96 (1999), 8867). The three curves show the control, a concentration of 20 μM and a concentration of 100 μM of the particular peptide (duplicate determinations).

No end group written: not given here.

On to “SYGLRPG-amide (SYGLRPG-NH2; listed as Homo sapiens) [GnRH 4-10]”, for which the “antioxidant effect in trapping peroxy free radicals (decrease in B-phycoerythrin fluorescence)” value in experiment [1] was “markedly reduced”. Same read-out and setting: in the case of “cyEHWSHDWKPG-amide (N-terminal pyroglutamate, C-terminal amide; listed as Petromyzon marinus) [GnRH (lamprey)]” it was “Analogous results”. As to “cyEHWSYGLRPG-amide (N-terminal pyroglutamate, C-terminal amide; listed as Homo Sapiens) [GnRH (human)]”, the “antioxidant effect in preventing peroxidation of brain lipids” value in experiment [2] was “have antioxidant properties”. Moreover, in experiment [1], the “antioxidant effect in trapping peroxy free radicals (decrease in B-phycoerythrin fluorescence)” value is recorded as “have antioxidant properties”. Moreover, in the experiment on human LDL, the “antioxidant effect in preventing LDL oxidation” value is on record as “have antioxidant properties”. As for “cyEHWSYGWLPG-amide (HELM PEPTIDE1{[Glp].H.W.S.Y.G.W.L.P.G.[am]}$$$$V2.0; SMILES CC(C)C[C@H](NC(=O)[C@H](Cc1c[nH]c2ccccc12)NC(=O)CNC(=O)[C@H](Cc1ccc(O)cc1)NC(=O)[C@H](CO)NC(=O)[C@H](Cc1c[nH]c2ccccc12)NC(=O)[C@H](Cc1c[nH]cn1)NC(=O)[C@@H]1CCC(=O)N1)C(=O)N1CCC[C@H]1C(=O)NCC(N)=O; listed as Oncorhynchus tshawytscha) [GnRH (salmon)]”, the “antioxidant effect in trapping peroxy free radicals (decrease in B-phycoerythrin fluorescence)” value in experiment [1] is listed as “Analogous results”.

Take “WGGY (A synthetic peptide which functions as an antioxidant)”: the “antioxidant effect in trapping peroxy free radicals (decrease in B-phycoerythrin fluorescence)” value in experiment [1] is “Analogous results”.

On to WGY, for which the “antioxidant effect in trapping peroxy free radicals (decrease in B-phycoerythrin fluorescence)” value in experiment [1] is “Analogous results”. For “LRPG-amide (LRPG-NH2; listed as Homo sapiens) [GnRH 7-10]”, the “antioxidant effect in trapping peroxy free radicals (decrease in B-phycoerythrin fluorescence)” value in experiment [1] is reported as “complete loss of activity”.

Values taken from patent publication US8232243B2, “Tyrosine- and tryptophan-containing peptides as antioxidants” (Max-Planck-Gesellschaft zur Forderung der Wissenschaften …, priority 1999, dated 2012).
